The values that follow come from US8946299B2, “Use of calixarenes associated with an antibiotic in the treatment of bacterial infections” (Universite de Lorraine, priority 2011, dated 2015).

Holding throughout (format): cell-based
The subject of experiment [1] is Pseudomonas aeruginosa strain having a resistance to β-lactams, the trimethoprim-sulphamethoxazole combination and fosfomycin (PaR2). The following applies: antibiotic used alone; second figure of the cell; n = 4. An excerpt:
(§1) Three reference strains were used, corresponding to those studied for the MICs and MBCs (Minimum Bactericidal Concentration): Escherichia coli ATCC 25922, Staphylococcus aureus ATCC 29213, Pseudomonas aeruginosa ATCC 27853. For each of these strains 3 corresponding clinical isolates were chosen, having various antibiotic-resistance profiles, routinely used in standard fashion: • EcR1, EcR2, EcR3; • SaR1, SaR3, SaR4; • PaR2, PaR3, PaR5.
(§2) 1.3. Procedure: Chessboard Technique
(§3) The bacterial suspension is transferred to a 15 mL Falcon tube, centrifuged for 10 min at 4500 g, then the pellet is re-suspended in 1 mL of sterile distilled water. Suitable dilutions are then prepared in order to obtain a bacterial inoculum between 5·10^5 and 5·10^6 CFU/mL.
(§4) The MICs of the antibiotics were previously determined for each strain, by the method of microdilution in a liquid medium (CLSI (Clinical and Laboratory Standards Institute), 2003).
(§5) The same procedure is followed for the Cx1. […] Thus 64 ATB/Cx1 combinations are obtained.
(§6) The final volume contained in each of the wells must be 100 μL. Two controls must be present on each plate: • column 1 and 12: medium control • column 2 and 11: medium+bacteria control
(§7) Cx1: […] in the wells of […], starting with the lowest concentration.
(§8) ATB: 25 μL in the wells of rows H to A (columns 3 to 11), starting with the lowest concentration.
(§9) 50 μL in each of the wells of columns 2 to 11.
(§10) D2: Reading the Turbidity at 540 Nm.
(§11) The FIC (Fractional Inhibitory Concentration Index) value is determined by the following formula:
(§12) [formula] MICA in combination MICA alone MICB in combination MICB alone
(§13) When FIC≦0.5, there is a synergistic effect between antibiotic A and antibiotic B.
(§14) When 0.5<FIC≦1, there is an additive effect between antibiotic A and antibiotic B.
(§15) When 1<FIC≦4, there is an indifferent effect between antibiotic A and antibiotic B.
(§16) When FIC>4, there is an antagonistic effect between antibiotic A and antibiotic B.
(§17) For each strain and each antibiotic/Cx1 combination, the experiments were repeated a minimum of 3 times.

The test system of experiment [2] is PaR2: Pseudomonas aeruginosa. The conditions noted are these: Table G1; strain PaR2. As to the method: 5.7 PaR2: Pseudomonas aeruginosa Having an Associated Resistance to the β-Lactams, the Trimethoprim-Sulphamethoxazole Combination and Fosfomycin The bacterial and antibiogram identification is carried out by the VITEK 2 system (bioMérieux) and by the disk diffusion technique

Experiment [3] deals with EcR3: ESBL-Producing Escherichia coli. The experiment can be described thus: Antibiogram by the disk diffusion technique. The conditions noted are these: Table C1; strain EcR3. As to the method:
5.3 EcR3: ESBL-Producing Escherichia coli with Associated Resistance to the Aminoglycosides, Rifampicin and the Trimethoprim-Sulphamethoxazole Combination
The bacterial and antibiogram identification is carried out by the VITEK 2 system (bioMérieux) and by the disk diffusion technique

For experiment [4], the system named is Pseudomonas aeruginosa strain having a resistance to β-lactams (including the carbapenems), aminoglycosides, the trimethoprim-sulphamethoxazole combination and …. Description: Chessboard technique: MICs alone and synergism of Cx1 combinations. The conditions noted are these: antibiotic used alone; second figure of the cell; n = 4.
Source text: as §1, §2, §3, §4, §5, §6, §7, §8, §9, §10, §11, §12, §13, §14, §15, §16, §17

The test system of experiment [5] is Pseudomonas aeruginosa strain ATCC 27853 (wild type). The description is as above. The following applies: antibiotic used alone; second figure of the cell; n = 4.
Source text: as §1, §2, §3, §4, §5, §6, §7, §8, §9, §10, §11, §12, §13, §14, §15, §16, §17

Experiment [6] concerns mucoid strain of Pseudomonas aeruginosa having a resistance to rifampicin and the trimethoprim-sulphamethoxazole combination (PaR5). Described as above. The conditions noted are these: antibiotic used alone; second figure of the cell; n = 4.
Source text: as §1, §2, §3, §4, §5, §6, §7, §8, §9, §10, §11, §12, §13, §14, §15, §16, §17

Experiment [7] concerns EcR1: Penicillinase-Producing Escherichia coli without Associated Resistance. Description: Antibiogram by the disk diffusion technique. As for the experimental part:
5. Identification and Antibiogram 5.1 EcR1: Penicillinase-Producing Escherichia coli without Associated Resistance
The bacterial and antibiogram identification is carried out by the VITEK 2 system (bioMérieux) and by the disk diffusion technique.
(In general: In agar diffusion tests the substance spreads into inoculated agar from a disc or well.)

For experiment [8], the system named is PaR5: Pseudomonas aeruginosa. Description: Antibiogram by the disk diffusion technique. On the set-up: unit not given here. The conditions noted are these: Table I1; strain PaR5.

On to Colimycin, for which the “MIC (antibiotic)” value in experiment [1] amounted to 8 µg/mL; in experiment [4], 8 µg/mL; in experiment [5] it was 4 µg/mL; in experiment [6], 16 µg/mL. Also, the Diameter is 20 in experiment [2]; 16 in experiment [3]; 15 in experiment [7] (Table A1, disk diffusion); 23 in experiment [8]. Also, the “Results (diameter)” value in experiment [7] (Table A1, category from diameter vs Dmin Dmax) was “Susceptible”. The same substance returned a diameter in mm in experiment [7] (Table A2, diameter) of 15 mm.
